ChEMBL document CHEMBL1212709, “Design of isoform-selective phospholipase D inhibitors that modulate cancer cell invasiveness” (Nat Chem Biol, 2009)

Key:
Phospholipase D2 [1] = target: T1, Phospholipase D2 (Homo sapiens, UniProt O14939); test: Inhibition of GFP-tagged human PLD2 expressed in human HEK293 cells assessed as decrease in phosphatidylbutanol-[d9] production after 30 mins by mass spectrometric analysis; format: cell-based
Phospholipase D1 [2] = target: T2, Phospholipase D1 (Rattus norvegicus, UniProt P70496); test: Inhibition of N-terminally truncated rat PLD1 assessed as release of methyl-[3H]choline from choline-methyl-[3H]dipalmitoylphosphatidylcholine after 30 mins by exogenous substrate assay
T2 sequence (P70496 whole entry): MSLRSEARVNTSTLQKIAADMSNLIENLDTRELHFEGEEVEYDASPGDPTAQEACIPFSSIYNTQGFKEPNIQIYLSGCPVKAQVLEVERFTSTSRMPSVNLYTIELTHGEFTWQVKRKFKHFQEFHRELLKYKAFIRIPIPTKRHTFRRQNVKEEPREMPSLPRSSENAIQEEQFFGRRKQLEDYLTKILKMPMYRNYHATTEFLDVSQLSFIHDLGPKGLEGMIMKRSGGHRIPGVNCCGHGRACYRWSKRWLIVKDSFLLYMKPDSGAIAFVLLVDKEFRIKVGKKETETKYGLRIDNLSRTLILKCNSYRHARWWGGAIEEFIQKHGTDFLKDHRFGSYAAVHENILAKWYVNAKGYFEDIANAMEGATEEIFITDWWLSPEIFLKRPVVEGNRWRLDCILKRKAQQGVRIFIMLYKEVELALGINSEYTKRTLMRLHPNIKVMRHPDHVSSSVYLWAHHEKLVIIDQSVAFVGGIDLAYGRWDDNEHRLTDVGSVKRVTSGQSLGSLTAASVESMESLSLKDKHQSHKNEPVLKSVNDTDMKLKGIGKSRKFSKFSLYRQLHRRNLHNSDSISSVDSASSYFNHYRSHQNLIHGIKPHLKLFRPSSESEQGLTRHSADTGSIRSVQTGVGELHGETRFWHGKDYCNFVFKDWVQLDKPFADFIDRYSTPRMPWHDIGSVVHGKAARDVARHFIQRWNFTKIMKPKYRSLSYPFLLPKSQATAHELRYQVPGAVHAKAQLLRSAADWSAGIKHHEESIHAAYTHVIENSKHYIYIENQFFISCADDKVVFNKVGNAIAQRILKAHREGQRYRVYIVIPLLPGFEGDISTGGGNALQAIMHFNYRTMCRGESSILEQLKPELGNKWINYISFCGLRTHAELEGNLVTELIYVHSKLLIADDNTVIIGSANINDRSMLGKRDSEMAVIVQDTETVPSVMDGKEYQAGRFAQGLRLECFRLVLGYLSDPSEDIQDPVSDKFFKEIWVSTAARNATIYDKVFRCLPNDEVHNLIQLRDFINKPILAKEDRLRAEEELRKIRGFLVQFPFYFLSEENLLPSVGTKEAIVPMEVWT

Phospholipase D2 [3] = target: T1, Phospholipase D2; test: Inhibition of human PLD2 assessed as release of methyl-[3H]choline from choline-methyl-[3H]dipalmitoylphosphatidylcholine after 30 mins by exogenous substrate assay
Phospholipase D1 [4] = target: T3, Phospholipase D1 (Homo sapiens, UniProt Q13393); test: Inhibition of human PLD1 assessed as release of methyl-[3H]choline from choline-methyl-[3H]dipalmitoylphosphatidylcholine after 30 mins by exogenous substrate assay
T3 sequence (Q13393 whole entry): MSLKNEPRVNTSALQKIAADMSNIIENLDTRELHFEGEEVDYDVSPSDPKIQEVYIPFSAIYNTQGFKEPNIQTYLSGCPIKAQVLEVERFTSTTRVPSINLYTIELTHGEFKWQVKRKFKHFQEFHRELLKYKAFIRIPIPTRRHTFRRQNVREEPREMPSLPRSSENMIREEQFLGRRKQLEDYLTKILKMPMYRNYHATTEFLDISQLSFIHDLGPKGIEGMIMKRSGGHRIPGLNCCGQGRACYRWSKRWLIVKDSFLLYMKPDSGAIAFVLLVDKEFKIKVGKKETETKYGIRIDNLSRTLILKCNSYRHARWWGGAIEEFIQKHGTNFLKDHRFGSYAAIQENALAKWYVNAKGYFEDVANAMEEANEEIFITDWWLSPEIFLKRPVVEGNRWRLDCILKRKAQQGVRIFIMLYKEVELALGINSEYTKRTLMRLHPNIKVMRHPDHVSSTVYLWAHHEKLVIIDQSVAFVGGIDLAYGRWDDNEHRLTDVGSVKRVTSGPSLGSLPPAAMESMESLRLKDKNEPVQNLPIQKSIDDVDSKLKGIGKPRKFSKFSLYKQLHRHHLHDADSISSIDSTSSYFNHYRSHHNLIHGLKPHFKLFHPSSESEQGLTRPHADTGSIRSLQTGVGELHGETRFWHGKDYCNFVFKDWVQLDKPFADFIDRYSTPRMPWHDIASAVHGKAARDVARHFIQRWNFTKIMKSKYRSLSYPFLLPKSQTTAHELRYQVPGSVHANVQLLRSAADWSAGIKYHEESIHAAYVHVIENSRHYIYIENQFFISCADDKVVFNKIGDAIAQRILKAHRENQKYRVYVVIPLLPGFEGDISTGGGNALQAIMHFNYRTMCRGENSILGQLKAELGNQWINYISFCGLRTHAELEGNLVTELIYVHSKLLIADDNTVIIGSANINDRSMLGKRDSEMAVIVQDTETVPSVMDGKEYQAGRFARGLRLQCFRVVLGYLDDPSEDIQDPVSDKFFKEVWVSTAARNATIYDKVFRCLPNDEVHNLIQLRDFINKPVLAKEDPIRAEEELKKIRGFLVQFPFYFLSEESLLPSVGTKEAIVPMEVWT

Phospholipase D1 [5] = target: T3, Phospholipase D1
[6] = Inhibition of PLD
Phospholipase D1 [7] = target: T3, Phospholipase D1; test: Inhibition of human PLD1b
[8] = Inhibition of in Streptomyces chromofuscus PLD

T1 sequence (O14939 whole entry, the tested form may be a part): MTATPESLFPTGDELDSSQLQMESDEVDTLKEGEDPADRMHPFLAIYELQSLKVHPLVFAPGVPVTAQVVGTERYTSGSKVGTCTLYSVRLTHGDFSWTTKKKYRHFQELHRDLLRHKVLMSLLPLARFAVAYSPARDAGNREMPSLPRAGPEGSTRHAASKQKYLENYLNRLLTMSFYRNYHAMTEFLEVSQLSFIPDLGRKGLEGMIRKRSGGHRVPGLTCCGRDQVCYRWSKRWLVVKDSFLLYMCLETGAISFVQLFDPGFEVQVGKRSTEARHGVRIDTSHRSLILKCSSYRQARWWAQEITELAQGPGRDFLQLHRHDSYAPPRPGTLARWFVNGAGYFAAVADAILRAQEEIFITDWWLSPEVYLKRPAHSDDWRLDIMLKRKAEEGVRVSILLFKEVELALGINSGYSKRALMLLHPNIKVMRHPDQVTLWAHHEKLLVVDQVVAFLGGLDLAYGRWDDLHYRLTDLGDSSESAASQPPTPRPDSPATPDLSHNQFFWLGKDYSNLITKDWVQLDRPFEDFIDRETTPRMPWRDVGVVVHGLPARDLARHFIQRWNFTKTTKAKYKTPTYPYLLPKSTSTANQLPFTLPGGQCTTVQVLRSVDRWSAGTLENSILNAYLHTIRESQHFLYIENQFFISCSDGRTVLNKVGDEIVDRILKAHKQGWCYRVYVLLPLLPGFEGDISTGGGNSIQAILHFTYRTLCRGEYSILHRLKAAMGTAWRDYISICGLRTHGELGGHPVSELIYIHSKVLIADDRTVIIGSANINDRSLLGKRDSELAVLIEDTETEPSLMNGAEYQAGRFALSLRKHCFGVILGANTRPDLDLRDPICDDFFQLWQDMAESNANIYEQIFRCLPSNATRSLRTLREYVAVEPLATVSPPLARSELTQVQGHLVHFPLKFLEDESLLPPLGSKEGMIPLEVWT

Row | SMILES | IC50 (Phospholipase D2 [1]) | IC50 (Phospholipase D1 [2]) | IC50 (Phospholipase D2 [3]) | IC50 (Phospholipase D1 [4]) | IC50 (Phospholipase D1 [5]) | IC50 [6] | IC50 (Phospholipase D1 [7]) | IC50 [8]
1 | O=C(NCCN1CCC(n2c(=O)[nH]c3ccccc32)CC1)c1cc(Br)c(Br)o1 | 220 nM | 2900 nM | 170 nM | 79 nM | 8.9 nM |  |  | 
2 | O=C(NCCN1CCC(n2c(O)nc3ccccc32)CC1)c1cccc2c1-c1ccccc1C2=O | 1000 nM | 1100 nM | 600 nM | 260 nM | 20 nM |  |  | 
3 | O=C(NCCN1CCC(n2c(O)nc3ccccc32)CC1)c1ccc(Cl)c(Cl)c1 | 220 nM | 910 nM | 250 nM | 46 nM | 19 nM |  |  | 
4 | O=C(NCCN1CCC(n2c(O)nc3ccccc32)CC1)c1ccc(Cl)cc1 | 140 nM | 910 nM | 130 nM | 55 nM | 6.3 nM |  |  | 
5 | COc1ccc(C(=O)NCCN2CCC(n3c(=O)[nH]c4ccccc43)CC2)cc1 | 1100 nM | > 20000 nM | > 20000 nM | 15000 nM | 1000 nM |  |  | 
6 | O=C(NCCN1CCC(n2c(=O)[nH]c3ccccc32)CC1)n1c2ccccc2c2ccccc21 | 260 nM | 7200 nM | 1000 nM | 300 nM | 330 nM |  |  | 
7 | O=C(c1ccc(F)cc1)N(CCN1CCC(n2c(=O)[nH]c3ccccc32)CC1)C(=O)c1ccc(F)cc1 | 470 nM | 870 nM | 2200 nM | 1400 nM | 48 nM |  |  | 
8 | Cc1ccc(C(=O)NCCN2CCC(n3c(O)nc4ccccc43)CC2)cc1 | 210 nM | 1700 nM | 1100 nM | 780 nM | 32 nM |  |  | 
9 | C=Cc1ccc(C(=O)NCCN2CCC(n3c(=O)[nH]c4ccccc43)CC2)cc1 |  |  |  | 540 nM | 79 nM |  |  | 
10 | O=C(NCCN1CCC(n2c(=O)[nH]c3ccccc32)CC1)c1ccc[nH]1 | 340 nM | 1500 nM | 1200 nM | 316 nM | 37 nM |  |  | 
11 | O=C(NCCN1CCC(n2c(=O)[nH]c3ccccc32)CC1)c1cc(Cl)cc(Cl)c1 | 1100 nM | 3500 nM | 1900 nM | 400 nM | 85 nM |  |  | 
12 | O=C(NCCN1CCC2(CC1)C(=O)NCN2c1ccccc1)c1ccc(C(F)(F)F)cc1 |  | > 20000 nM | 4300 nM |  |  |  |  | 
13 | CCC(=C(c1ccc(O)cc1)c1ccc(OCCN(C)C)cc1)c1ccccc1 |  | 28000 nM |  |  | 4800 nM |  |  | 
14 | O=C(NCCN1CCC(n2c(=O)[nH]c3ccccc32)CC1)c1cc2cc(F)ccc2[nH]1 |  | 33 nM | 17 nM | 9.5 nM | 1 nM |  |  | 
15 | O=C(NCCN1CCC(n2c(=O)[nH]c3ccccc32)CC1)c1cc2ccccc2s1 | 210 nM | 1000 nM | 340 nM | 100 nM | 14 nM |  |  | 
16 | O=C(NCCN1CCC2(CC1)C(=O)NCN2c1ccccc1)c1ccc2ccccc2c1 |  | > 20000 nM |  |  |  |  |  | 
17 | O=C(c1ccc(OCCN2CCCCC2)cc1)c1c(-c2ccc(O)cc2)sc2cc(O)ccc12 [RALOXIFENE] | 10000 nM | > 20000 nM | 3400 nM | 4300 nM | 8500 nM |  |  | 
18 | Oc1ccc(/C=C/c2cc(O)cc(O)c2)cc1 [RESVERATROL] |  |  |  |  |  | > 60000 nM |  | 
19 | CC(C)=CCC/C(C)=C/CC/C(C)=C/[C@H]1[C@H](COP(=O)(O)OP(=O)(O)O)[C@@]1(C)CC/C=C(\C)CCC=C(C)C [Z-PSDP] |  |  |  |  |  |  | > 1000 nM | 100 nM
